Structures are written as SMILES.

Data set [1] can be described thus: Comparative zinc bioavailability: growth parameters and zinc levels in blood and tibia ash of broilers. As to conditions: for Relative Biological Availability (%): Ending body weight (lbs) 21 days / Relative Biological Availability (%): Body weight gain (lbs) 21 days: broilers fed 21 days; for Relative Biological Availability (%): Ending body weight (lbs) 21 days: relative to zinc sulfate arbitrarily set at 100%, superscripts: means in a row without common superscript differ (P < 0.05, LSD). The method, then:
Each zinc treatment was replicated eight times and each pen contained ten male birds.
Basal feeds and zinc compound were mixed in a horizontal feed mixer providing the desired ingredient composition as shown in Table 4. The broilers were fed the rations for 21 days. Feed weights were taken during the trial. Body weights were measured at the beginning and at the end of the trial. On day 21, zinc levels in the blood and tibia ash were determined. The assay procedures for total tibia zinc content or concentration to assess zinc utilization are similar to those used by Wedekind et al., J. Anim. Sci., 70:178-187 (1992). The data were analyzed according to the SAS statistical package.
Chick growth parameters and zinc levels in the blood and tibia ash were used as criteria to determine the biological availability of zinc. […] The biological availability of zinc sulfate was arbitrarily set at 100%.

The conditions of data set [2]: cited from earlier work.
The mark [3] stands for this setting: relative to zinc sulfate set at 100%, superscripts: P < 0.05, LSD.
Setting [4] is: broilers, relative to zinc sulfate set at 100%, superscripts: P < 0.05, LSD.
The mark [5] stands for this setting: broilers, day 21, relative to zinc sulfate set at 100%, superscripts: P < 0.05, LSD.

With `O=S(=O)([O-])[O-].[Zn+2]` [Sulfate, zinc sulfate, reference compound], the “Relative Biological Availability (%): Ending body weight (lbs) 21 days” value in data set [1] is on record as 100.00%. The “Relative Biological Availability (%): Body weight gain (lbs) 21 days” value in data set [1] (setting [3]) was 100.00%. For the same compound, the “Relative Biological Availability (%): Feed conversion (corr.) 3-21 days” value in data set [1] (setting [4]) was 100.00%. The “Relative Biological Availability (%): Bone ash (%) 21 days” value in data set [1] (setting [5]) is 100.00%. Also, in data set [1] (chicken, in vivo, 30240 min), the “Relative Biological Availability (%): Plasma Zinc (μg/ml)” value is recorded as 100.00% and the “Relative Biological Availability (%): Tibia ash zinc (μg/g)” value is listed as 100.00%.

On to `[O]=[Zn]` [Zinc oxide, zinc oxide], for which, in data set [2], the solubility in water is 0.00016 g/100 ml.

Take `CSCC[C@H](N)C(=O)O.O=S(=O)([O-])O.O=S(=O)([O-])O.[Zn+2]` [Zinpro ®, Zinc methionine bisulfate]: the “ending body weights compared with zinc sulfate” value in data set [1] (both the 10 mg/kg and 20 mg/kg levels) is reported as “statistically significant higher ending body weights”. Besides, the “Relative Biological Availability (%): Ending body weight (lbs) 21 days” value in data set [1] amounted to 132.46%. Moreover, in data set [1] (setting [3]), the “Relative Biological Availability (%): Body weight gain (lbs) 21 days” value came to 131.52%. For the same compound, the “Relative Biological Availability (%): Feed conversion (corr.) 3-21 days” value in data set [1] (setting [4]) was determined as 90.38%. Moreover, the “Relative Biological Availability (%): Plasma Zinc (μg/ml)” value in data set [1] (broilers, day 21, plasma, relative to zinc sulfate set at 100%, superscripts: P < 0.05, LSD) is 124.00%. Also, the “Relative Biological Availability (%): Tibia ash zinc (μg/g)” value in data set [1] (broilers, day 21, tibia ash, relative to zinc sulfate set at 100%, superscripts: P < 0.05, LSD) worked out at 123.99%. Further, the “Relative Biological Availability (%): Bone ash (%) 21 days” value in data set [1] (setting [5]) amounted to 113.95%. Besides, the “levels of zinc in the blood and tibia ash on day 21” value in data set [1] (day 21, zinc propionate versus zinc methionine) is given as “comparable levels of zinc”.
